Ends that are not written are not given here.
What was measured:
pepsin = experiment: Stability of oral formulations of Angiopep peptides in the presence of pepsin; assay type: in vitro ADME; details: pepsin (isolated enzyme); 1 mg/mL peptide; 1 mg/25 mL pepsin (diluted 41 times, pH=1.4); 37° C.
Description: The stability of oral formulations (1 mg/mL of Angiopep peptide) was determined in the presence of 1 mg/25 mL of pepsin (diluted 41 times, pH=1.4), an enzyme present in gastric fluid, at 37° C. Table 5 provides the half-life (t1/2) for degradation of various Angiopep peptides.

BBB = experiment: In situ brain perfusion in mice with capillary depletion (transport across the BBB); assay type: in vivo; details: for crossing of the BBB (overall conclusion): mouse, in vivo
Description: The initial transport was measured as a function of time.

mice = experiment: Induction of hypothermia (body temperature) after intravenous bolus; assay type: in vivo; details: Table 9 grades

Sequence of pepsin (P0DJD8 63-388): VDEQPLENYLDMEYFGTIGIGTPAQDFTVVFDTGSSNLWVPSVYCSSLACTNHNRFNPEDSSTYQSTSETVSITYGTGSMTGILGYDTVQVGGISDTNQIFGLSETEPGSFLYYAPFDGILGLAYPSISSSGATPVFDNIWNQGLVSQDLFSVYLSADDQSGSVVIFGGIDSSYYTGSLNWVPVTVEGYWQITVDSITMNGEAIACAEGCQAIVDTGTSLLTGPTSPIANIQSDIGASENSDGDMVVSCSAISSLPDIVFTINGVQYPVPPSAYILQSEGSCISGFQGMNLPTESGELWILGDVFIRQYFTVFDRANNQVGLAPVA

| Compound | half-life at 1 mg/mL (pepsin) [min] | further results |
| --- | --- | --- |
| C[C@@H](O)[C@H](N)C(=O)N[C@@H](Cc1ccccc1)C(=O)N[C@@H](Cc1ccccc1)C(=O)N[C@@H](Cc1ccc(O)cc1)C(=O)NCC(=O)NCC(=O)N[C@@H](CO)C(=O)N[C@@H](CCCNC(=N)N)C(=O)NCC(=O)N[C@@H](CCCCN)C(=O)N[C@@H](CCCNC(=N)N)C(=O)N[C@@H](CC(N)=O)C(=O)N[C@@H](CC(N)=O)C(=O)N[C@@H](Cc1ccccc1)C(=O)N[C@@H](CCCCN)C(=O)N[C@H](C(=O)N[C@@H](CCC(=O)O)C(=O)N[C@@H](CCC(=O)O)C(=O)N[C@@H](Cc1ccc(O)cc1)C(=O)O)[C@@H](C)O [An2, T F F Y G G S R G K R N N F K T E E Y, reference compound] | 40 |  |
| C[C@@H](O)[C@H](N)C(=O)N[C@@H](Cc1ccccc1)C(=O)N[C@@H](Cc1ccccc1)C(=O)N[C@@H](Cc1ccc(O)cc1)C(=O)NCC(=O)NCC(=O)N[C@@H](CO)C(=O)N[C@H](CCCNC(=N)N)C(=O)NCC(=O)N[C@H](CCCCN)C(=O)N[C@H](CCCNC(=N)N)C(=O)N[C@@H](CC(N)=O)C(=O)N[C@@H](CC(N)=O)C(=O)N[C@@H](Cc1ccccc1)C(=O)N[C@@H](CCCCN)C(=O)N[C@H](C(=O)N[C@@H](CCC(=O)O)C(=O)N[C@@H](CCC(=O)O)C(=O)N[C@@H](Cc1ccc(O)cc1)C(=O)O)[C@@H](C)O [Peptide 3D-An2] | 60 |  |
| C[C@@H](O)[C@H](NC(=O)[C@H](CCCCN)NC(=O)[C@H](Cc1ccccc1)NC(=O)[C@H](CC(N)=O)NC(=O)[C@H](CC(N)=O)NC(=O)[C@H](CCCNC(=N)N)NC(=O)[C@@H](N)CCCCN)C(=O)N[C@@H](CCC(=O)O)C(=O)N[C@@H](CCC(=O)O)C(=O)N[C@@H](Cc1ccc(O)cc1)C(=O)N[C@@H](CS)C(N)=O [Peptide P5] | 24 | crossing of the BBB (overall conclusion) (BBB): effectively cross the BBB |
| C[C@@H](O)[C@H](NC(=O)[C@H](CCCCN)NC(=O)[C@@H](Cc1ccccc1)NC(=O)[C@H](CC(N)=O)NC(=O)[C@H](CC(N)=O)NC(=O)[C@@H](CCCNC(=N)N)NC(=O)[C@H](N)CCCCN)C(=O)N[C@@H](CCC(=O)O)C(=O)N[C@@H](CCC(=O)O)C(=O)N[C@@H](Cc1ccc(O)cc1)C(=O)N[C@@H](CS)C(N)=O [Peptide P5a, D-Lys-D-Arg-Asn-Asn-D-Phe-Lys-Thr-Glu-Glu-Tyr-Cys] | 21 |  |
| CC[C@H](C)[C@H](NC(=O)[C@@H](Cc1ccc(O)cc1)NC(=O)[C@@H]1CCCN1C(=O)[C@H](CCCNC(=N)N)NC(=O)[C@H](CCCNC(=N)N)NC(=O)[C@H](CCCCNC(=O)CCCCCN1C(=O)CC(SC[C@H](NC(=O)[C@H](Cc2ccc(O)cc2)NC(=O)[C@H](CCC(=O)O)NC(=O)[C@H](CCC(=O)O)NC(=O)[C@@H](NC(=O)[C@H](CCCCN)NC(=O)[C@@H](Cc2ccccc2)NC(=O)[C@H](CC(N)=O)NC(=O)[C@H](CC(N)=O)NC(=O)[C@@H](CCCNC(=N)N)NC(=O)[C@H](N)CCCCN)[C@@H](C)O)C(N)=O)C1=O)NC(C)=O)C(=O)N[C@@H](CC(C)C)C(=O)O (stereo partly shown) [Peptide P5a-NT1] |  | brain uptake (BBB; in situ brain perfusion in mice, initial transport measured as a function of time): higher than for neurotensin (NT) |
| N=C(N)NCCC[C@H](NC(=O)[C@@H](N)CCCCN)C(=O)N[C@@H](CC(N)=O)C(=O)N[C@@H](CC(N)=O)C(=O)N[C@@H](Cc1ccccc1)C(=O)N[C@@H](CCCCN)C(=O)N[C@@H](Cc1ccc(O)cc1)C(=O)N[C@@H](CS)C(N)=O [Peptide P6] | > 240 |  |
| N=C(N)NCCC[C@@H](NC(=O)[C@H](N)CCCCN)C(=O)N[C@@H](CC(N)=O)C(=O)N[C@@H](CC(N)=O)C(=O)N[C@H](Cc1ccccc1)C(=O)N[C@@H](CCCCN)C(=O)N[C@@H](Cc1ccc(O)cc1)C(=O)N[C@@H](CS)C(N)=O [Peptide P6a, D-Lys-D-Arg-Asn-Asn-D-Phe-Lys-Tyr-Cys] | > 1080 |  |
| FYGGSRGKRNNFKTEEYC-NH2 [Peptide P1] |  | crossing of the BBB (overall conclusion) (BBB): effectively cross the BBB |
| TFFYGGSRG K R N N F KTEEY E L Y E N K P R R P Y I L (TFFYGGSRGKRNNFKTEEYELYENKPRRPYIL) [An2-NT, fusion protein] |  | Hypothermia (mice): ✓✓✓ |

— patent publication US20180015180A1, “SHORT AND D-AMINO ACID-CONTAINING POLYPEPTIDES FOR THERAPEUTIC CONJUGATES AND USES THEREOF” (AngioChem Inc., priority 2010, published 2018)
